Data published in the kinase profiling compilation of Christmann-Franck et al. (2016).

Legend:
Experiment in all cases: KINOMEscan competition binding
Conditions in all cases: compound 10.0 µM
HIPK1 (human) = HIPK1 (human) (UniProt Q86Z02)
MERTK (human) = MERTK (human) (UniProt Q12866)
LATS2 (human) = LATS2 (human) (UniProt Q9NRM7)
DAPK2 (human) = DAPK2 (human) (UniProt Q9UIK4)
SLK (human) = SLK (human) (UniProt Q9H2G2)
CLK1 (human) = CLK1 (human) (UniProt P49759)
TXK (human) = TXK (human) (UniProt P42681)
CHEK1 (human) = CHEK1 (human) (UniProt O14757)
RPS6KA6 KD1 (human) = RPS6KA6 KD1 (human) (UniProt Q9UK32)
CDK3 (human) = CDK3 (human) (UniProt Q00526)
MYO3B (human) = MYO3B (human) (UniProt Q8WXR4)
MKNK2 (human) = MKNK2 (human) (UniProt Q9HBH9)
CLK2 (human) = CLK2 (human) (UniProt P49760)
PRKD2 (human) = PRKD2 (human) (UniProt Q9BZL6)
MAP3K5 (human) = MAP3K5 (human) (UniProt Q99683)
INSR (human) = INSR (human) (UniProt P06213)
CAMK1G (human) = CAMK1G (human) (UniProt Q96NX5)
STK32B (human) = STK32B (human) (UniProt Q9NY57)
PKN2 (human) = PKN2 (human) (UniProt Q16513)
ROCK2 (human) = ROCK2 (human) (UniProt O75116)
Sequence of ROCK2 (human) (O75116 whole entry, looked up): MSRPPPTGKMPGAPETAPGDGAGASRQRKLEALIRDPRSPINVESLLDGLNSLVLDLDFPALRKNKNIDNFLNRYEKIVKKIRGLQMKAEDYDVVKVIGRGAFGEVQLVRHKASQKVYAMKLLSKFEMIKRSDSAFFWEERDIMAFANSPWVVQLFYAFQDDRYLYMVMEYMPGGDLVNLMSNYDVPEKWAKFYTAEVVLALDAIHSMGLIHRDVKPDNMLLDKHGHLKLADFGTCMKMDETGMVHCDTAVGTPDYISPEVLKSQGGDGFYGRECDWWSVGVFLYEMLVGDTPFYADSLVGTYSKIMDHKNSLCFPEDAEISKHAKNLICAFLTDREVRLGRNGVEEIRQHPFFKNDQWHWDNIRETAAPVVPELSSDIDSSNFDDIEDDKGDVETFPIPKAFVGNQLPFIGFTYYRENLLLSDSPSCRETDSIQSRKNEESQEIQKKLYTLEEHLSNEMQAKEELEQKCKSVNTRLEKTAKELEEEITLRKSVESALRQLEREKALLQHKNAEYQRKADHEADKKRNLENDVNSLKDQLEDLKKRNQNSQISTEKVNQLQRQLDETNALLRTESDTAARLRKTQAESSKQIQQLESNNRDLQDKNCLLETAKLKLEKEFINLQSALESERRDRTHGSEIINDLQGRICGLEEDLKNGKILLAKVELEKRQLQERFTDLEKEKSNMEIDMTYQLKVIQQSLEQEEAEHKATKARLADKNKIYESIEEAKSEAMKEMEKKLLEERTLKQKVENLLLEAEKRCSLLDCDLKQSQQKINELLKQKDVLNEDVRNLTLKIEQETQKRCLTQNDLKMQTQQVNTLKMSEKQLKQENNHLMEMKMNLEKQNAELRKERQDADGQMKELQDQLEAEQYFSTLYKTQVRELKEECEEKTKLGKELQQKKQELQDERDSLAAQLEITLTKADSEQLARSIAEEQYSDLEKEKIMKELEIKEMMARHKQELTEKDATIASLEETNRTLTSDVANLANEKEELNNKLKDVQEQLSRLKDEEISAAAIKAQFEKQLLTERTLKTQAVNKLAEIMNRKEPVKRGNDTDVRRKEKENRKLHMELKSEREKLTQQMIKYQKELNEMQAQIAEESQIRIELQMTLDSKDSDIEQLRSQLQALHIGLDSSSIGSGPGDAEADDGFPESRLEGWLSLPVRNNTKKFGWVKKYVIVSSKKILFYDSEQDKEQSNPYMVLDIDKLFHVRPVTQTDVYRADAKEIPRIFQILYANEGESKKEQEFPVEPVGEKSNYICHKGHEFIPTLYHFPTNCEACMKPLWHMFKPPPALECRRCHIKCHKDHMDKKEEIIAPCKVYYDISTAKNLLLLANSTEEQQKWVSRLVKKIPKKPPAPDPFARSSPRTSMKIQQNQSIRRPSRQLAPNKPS

FLT1 (human) = FLT1 (human) (UniProt P17948)
PIK3C2B (human) = PIK3C2B (human) (UniProt O00750)
CAMK4 (human) = CAMK4 (human) (UniProt Q16566)
FGR (human) = FGR (human) (UniProt P09769)
ULK3 (human) = ULK3 (human) (UniProt Q6PHR2)
Sequence of ULK3 (human) (Q6PHR2 whole entry, looked up): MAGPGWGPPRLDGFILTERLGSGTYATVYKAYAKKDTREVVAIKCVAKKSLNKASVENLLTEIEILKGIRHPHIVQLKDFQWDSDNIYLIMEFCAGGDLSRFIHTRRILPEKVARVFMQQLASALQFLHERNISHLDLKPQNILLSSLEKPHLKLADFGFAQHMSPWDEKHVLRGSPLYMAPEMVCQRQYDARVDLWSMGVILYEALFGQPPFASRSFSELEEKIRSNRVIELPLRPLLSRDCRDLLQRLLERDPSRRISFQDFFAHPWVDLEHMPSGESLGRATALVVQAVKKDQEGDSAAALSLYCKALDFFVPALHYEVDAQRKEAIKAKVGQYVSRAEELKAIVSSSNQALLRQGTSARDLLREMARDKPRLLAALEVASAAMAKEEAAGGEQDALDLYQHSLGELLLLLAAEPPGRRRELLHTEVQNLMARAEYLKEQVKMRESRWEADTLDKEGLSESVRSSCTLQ

MUSK (human) = MUSK (human) (UniProt O15146)
PRKAA1 (human) = PRKAA1 (human) (UniProt Q13131)
CHUK (human) = CHUK (human) (UniProt O15111)
Sequence of CHUK (human) (O15111 whole entry, looked up): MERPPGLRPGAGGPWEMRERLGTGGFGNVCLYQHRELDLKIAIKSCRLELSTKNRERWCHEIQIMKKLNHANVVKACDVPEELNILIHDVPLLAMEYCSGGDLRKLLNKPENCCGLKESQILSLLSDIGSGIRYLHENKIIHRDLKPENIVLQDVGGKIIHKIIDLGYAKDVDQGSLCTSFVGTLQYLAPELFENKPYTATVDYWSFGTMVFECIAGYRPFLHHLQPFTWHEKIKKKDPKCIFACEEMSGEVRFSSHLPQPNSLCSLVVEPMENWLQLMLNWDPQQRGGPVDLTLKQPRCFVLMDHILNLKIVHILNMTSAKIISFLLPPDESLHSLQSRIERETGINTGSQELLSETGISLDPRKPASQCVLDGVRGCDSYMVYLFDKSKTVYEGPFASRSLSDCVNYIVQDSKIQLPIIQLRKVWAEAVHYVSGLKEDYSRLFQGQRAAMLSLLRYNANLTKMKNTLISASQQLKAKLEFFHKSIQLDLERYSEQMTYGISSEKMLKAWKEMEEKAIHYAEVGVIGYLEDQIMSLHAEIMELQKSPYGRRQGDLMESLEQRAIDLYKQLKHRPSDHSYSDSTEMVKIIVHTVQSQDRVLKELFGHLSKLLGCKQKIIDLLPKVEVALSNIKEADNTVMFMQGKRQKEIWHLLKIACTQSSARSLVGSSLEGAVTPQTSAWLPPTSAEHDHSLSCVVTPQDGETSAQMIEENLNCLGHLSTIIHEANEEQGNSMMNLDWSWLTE

FGFR1 (human) = FGFR1 (human) (UniProt P11362)
CAMK1D (human) = CAMK1D (human) (UniProt Q8IU85)
IGF1R (human) = IGF1R (human) (UniProt P08069)
MAP2K1 (human) = MAP2K1 (human) (UniProt Q02750)
BMPR2 (human) = BMPR2 (human) (UniProt Q13873)
DCLK3 (human) = DCLK3 (human) (UniProt Q9C098)
Sequence of DCLK3 (human) (Q9C098 whole entry, looked up): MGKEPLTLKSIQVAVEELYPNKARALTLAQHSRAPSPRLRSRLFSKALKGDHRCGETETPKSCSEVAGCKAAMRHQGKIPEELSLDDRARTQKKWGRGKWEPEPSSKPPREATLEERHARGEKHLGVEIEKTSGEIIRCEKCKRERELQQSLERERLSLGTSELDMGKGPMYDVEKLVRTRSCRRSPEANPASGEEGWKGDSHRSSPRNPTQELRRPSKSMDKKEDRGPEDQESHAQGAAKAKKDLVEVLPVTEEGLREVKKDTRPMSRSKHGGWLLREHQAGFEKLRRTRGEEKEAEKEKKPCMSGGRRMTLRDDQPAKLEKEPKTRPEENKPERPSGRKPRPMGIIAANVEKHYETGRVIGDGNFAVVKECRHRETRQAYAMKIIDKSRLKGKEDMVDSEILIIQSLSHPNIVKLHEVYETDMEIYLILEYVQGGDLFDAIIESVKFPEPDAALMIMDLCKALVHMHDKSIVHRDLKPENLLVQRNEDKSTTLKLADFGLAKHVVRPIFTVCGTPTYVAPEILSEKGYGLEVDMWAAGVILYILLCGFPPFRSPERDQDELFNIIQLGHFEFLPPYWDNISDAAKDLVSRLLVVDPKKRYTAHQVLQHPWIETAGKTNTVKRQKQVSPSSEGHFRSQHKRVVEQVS

PRKD1 (human) = PRKD1 (human) (UniProt Q15139)
MAP3K10 (human) = MAP3K10 (human) (UniProt Q02779)
EPHA2 (human) = EPHA2 (human) (UniProt P29317)
RPS6KA1 KD1 (human) = RPS6KA1 KD1 (human) (UniProt Q15418)
ITK (human) = ITK (human) (UniProt Q08881)

Sequence of HIPK1 (human) (Q86Z02 whole entry, looked up): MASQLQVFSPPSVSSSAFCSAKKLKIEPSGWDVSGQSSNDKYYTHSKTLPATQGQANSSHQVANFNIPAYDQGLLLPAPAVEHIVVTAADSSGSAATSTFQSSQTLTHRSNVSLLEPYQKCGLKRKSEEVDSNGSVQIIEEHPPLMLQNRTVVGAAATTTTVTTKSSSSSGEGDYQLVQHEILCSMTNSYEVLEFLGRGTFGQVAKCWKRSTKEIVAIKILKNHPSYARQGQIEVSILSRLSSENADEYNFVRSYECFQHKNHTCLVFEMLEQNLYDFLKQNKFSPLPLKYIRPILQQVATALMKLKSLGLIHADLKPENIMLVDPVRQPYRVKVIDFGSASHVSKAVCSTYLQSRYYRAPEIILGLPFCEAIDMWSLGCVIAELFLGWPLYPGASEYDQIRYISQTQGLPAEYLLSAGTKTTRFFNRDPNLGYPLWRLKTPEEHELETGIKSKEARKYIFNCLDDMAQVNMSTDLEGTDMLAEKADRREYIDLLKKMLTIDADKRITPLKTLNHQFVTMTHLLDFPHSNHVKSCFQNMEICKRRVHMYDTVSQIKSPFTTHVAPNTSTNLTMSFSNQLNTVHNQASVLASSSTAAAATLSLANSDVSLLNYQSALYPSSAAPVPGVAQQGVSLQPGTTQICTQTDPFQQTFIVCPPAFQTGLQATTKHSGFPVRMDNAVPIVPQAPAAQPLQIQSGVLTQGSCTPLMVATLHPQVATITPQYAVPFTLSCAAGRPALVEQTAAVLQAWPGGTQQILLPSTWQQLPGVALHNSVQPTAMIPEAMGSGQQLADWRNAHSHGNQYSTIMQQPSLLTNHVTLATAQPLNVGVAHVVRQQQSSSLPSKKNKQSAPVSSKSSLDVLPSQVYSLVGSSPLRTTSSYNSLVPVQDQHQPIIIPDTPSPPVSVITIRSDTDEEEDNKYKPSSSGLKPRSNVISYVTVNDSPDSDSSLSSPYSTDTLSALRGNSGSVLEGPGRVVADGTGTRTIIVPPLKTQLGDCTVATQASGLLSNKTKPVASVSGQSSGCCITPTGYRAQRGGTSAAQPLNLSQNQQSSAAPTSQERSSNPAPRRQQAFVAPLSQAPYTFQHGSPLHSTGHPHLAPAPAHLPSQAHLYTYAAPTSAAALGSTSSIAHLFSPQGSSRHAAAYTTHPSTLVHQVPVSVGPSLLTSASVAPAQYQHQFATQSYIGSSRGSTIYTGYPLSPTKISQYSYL
Sequence of DAPK2 (human) (Q9UIK4 whole entry, looked up): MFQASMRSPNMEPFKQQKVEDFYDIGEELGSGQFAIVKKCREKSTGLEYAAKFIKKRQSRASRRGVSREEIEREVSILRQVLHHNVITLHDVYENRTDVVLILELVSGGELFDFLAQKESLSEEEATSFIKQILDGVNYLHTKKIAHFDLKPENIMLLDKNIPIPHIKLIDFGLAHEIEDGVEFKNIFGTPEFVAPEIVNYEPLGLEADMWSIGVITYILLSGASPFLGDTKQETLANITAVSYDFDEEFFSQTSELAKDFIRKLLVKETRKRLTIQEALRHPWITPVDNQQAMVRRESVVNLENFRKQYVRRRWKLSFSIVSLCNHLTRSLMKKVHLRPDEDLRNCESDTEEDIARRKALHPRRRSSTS

Structure (SMILES) | kinase still bound, per cent of control (HIPK1 (human)) | kinase still bound, per cent of control (MERTK (human)) | kinase still bound, per cent of control (LATS2 (human)) | kinase still bound, per cent of control (DAPK2 (human)) | kinase still bound, per cent of control (SLK (human)) | kinase still bound, per cent of control (CLK1 (human)) | kinase still bound, per cent of control (TXK (human)) | kinase still bound, per cent of control (RPS6KA6 KD1 (human)) | kinase still bound, per cent of control (CDK3 (human)) | kinase still bound, per cent of control (MYO3B (human)) | kinase still bound, per cent of control (CLK2 (human)) | kinase still bound, per cent of control (PRKD2 (human)) | kinase still bound, per cent of control (MAP3K5 (human)) | kinase still bound, per cent of control (INSR (human)) | kinase still bound, per cent of control (CAMK1G (human)) | kinase still bound, per cent of control (STK32B (human)) | kinase still bound, per cent of control (PKN2 (human)) | kinase still bound, per cent of control (ROCK2 (human)) | kinase still bound, per cent of control (FLT1 (human)) | kinase still bound, per cent of control (PIK3C2B (human)) | other results
O=C(O)c1ccc(Nc2ncc3c(n2)-c2ccc(Cl)cc2C(c2c(F)cccc2F)=NC3)cc1 | 14% | 3% | 72% | 41% | 80% | 63% | 46% | 36% | 100% | 100% | 7.4% | 92% | 100% | 59% | 79% | 38% | 79% | 89% | 12% | 93% | kinase still bound, per cent of control (CHEK1 (human)): 91%; kinase still bound, per cent of control (MKNK2 (human)): 84%; kinase still bound, per cent of control (CAMK4 (human)): 66%; kinase still bound, per cent of control (FGR (human)): 7.6%; kinase still bound, per cent of control (ULK3 (human)): 57%; kinase still bound, per cent of control (MUSK (human)): 93%; kinase still bound, per cent of control (PRKAA1 (human)): 38%; kinase still bound, per cent of control (CHUK (human)): 100%; kinase still bound, per cent of control (FGFR1 (human)): 14%; kinase still bound, per cent of control (CAMK1D (human)): 98%; kinase still bound, per cent of control (IGF1R (human)): 73%; kinase still bound, per cent of control (MAP2K1 (human)): 86%; kinase still bound, per cent of control (BMPR2 (human)): 26%; kinase still bound, per cent of control (DCLK3 (human)): 92%; kinase still bound, per cent of control (PRKD1 (human)): 92%; kinase still bound, per cent of control (MAP3K10 (human)): 67%
CCCS(=O)(=O)Nc1ccc(F)c(C(=O)c2c[nH]c3ncc(-c4ccc(Cl)cc4)cc23)c1F | 90% | 60% | 75% | 95% | 1.4% | 70% | 59% | 82% | 94% | 64% | 46% | 95% | 100% | 78% | 92% | 100% | 92% | 77% | 43% | 100% | kinase still bound, per cent of control (EPHA2 (human)): 99%; kinase still bound, per cent of control (CAMK4 (human)): 100%; kinase still bound, per cent of control (FGR (human)): 9.2%; kinase still bound, per cent of control (ULK3 (human)): 46%; kinase still bound, per cent of control (MUSK (human)): 99%; kinase still bound, per cent of control (RPS6KA1 KD1 (human)): 57%; kinase still bound, per cent of control (ITK (human)): 100%; kinase still bound, per cent of control (PRKAA1 (human)): 89%; kinase still bound, per cent of control (CHUK (human)): 87%; kinase still bound, per cent of control (FGFR1 (human)): 49%; kinase still bound, per cent of control (CAMK1D (human)): 100%; kinase still bound, per cent of control (IGF1R (human)): 93%; kinase still bound, per cent of control (MAP2K1 (human)): 10%; kinase still bound, per cent of control (BMPR2 (human)): 57%; kinase still bound, per cent of control (DCLK3 (human)): 47%; kinase still bound, per cent of control (PRKD1 (human)): 8.2%; kinase still bound, per cent of control (MAP3K10 (human)): 73%
